Test results: patent US10426775B2, “Methods for treating Friedreich's ataxia with etravirine” (Fratagene Therapeutics srl, priority 2017, dated 2019)
Residues, ends and D or L forms follow the SMILES beside them. *: point of attachment. Cbz = O=C(OCc1ccccc1)*

Columns and labels:
[1] = tested on: frataxin-ProLabel fusion; assay: frataxin-ProLabel cell-based reporter assay (β-galactosidase enzyme fragment complementation), library screening; parameters: species or system human; details: frataxin-ProLabel transfected cells treated with MG132
Procedure: The FDA-approved drug library (SELLECKCHEM SCREENING LIBRARIES®) that was used in the screening was composed of 853 drugs. The library was provided in a total of ten 96-well plate, with the drugs at a stock concentration of 10 mM in dimethyl sulfoxide (DMSO). To evaluate the effect of drugs on frataxin abundance, we generated a fusion construct between frataxin and ProLabel that was used as a reporter in a cell-based assay. The system is based on […] enzyme fragment complementation (Eglen, 2002). […] Indeed, treatment of frataxin-ProLabel transfected cells with MG132 promotes frataxin accumulation, which results in a 5-fold increase in the intensity of the luminescence signal. […]
For the screening, HEK-293 cells were transiently transfected with pCMV-fxn-ProLabel. […] After 24 hours, the complementary β-galactosidase subunit and the substrate were added and chemiluminescence emission was measured by luminometer reading. […] The chemiluminescent signal was monitored over a period of 210 minutes. […]
To analyse the FDA-approved drug screening results, an arbitrary threshold was established for each plate as the average of the luminescence measured in all the wells of the plate plus 2 standard deviations. Luminescence signal from each well was then normalized on threshold value. […]

[2] = tested on: newly synthesized frataxin mRNA; assay: Nascent frataxin transcripts (EU metabolic labeling, Click-iT capture, real-time PCR) in HEK293-fxn; assay type: cell-based, human; details: 10 μM, 4 or 8 hours
From the text: We then investigated whether the observed increase in frataxin protein levels is due to an upregulation of the frataxin mRNA, either promoted by an increase in the […] rate of frataxin mRNA or by its stabilization. To understand whether etravirine promotes de novo synthesis of frataxin mRNA, we metabolically labeled nascent transcripts through the incorporation of 5-ethynyl uridine (EU). Through a click chemistry-based reaction, biotin was then conjugated to EU-labelled transcripts, thus allowing selective isolation and analysis of newly synthesized mRNA. We therefore quantitatively analyzed the relative amount of newly synthesized frataxin mRNA in etravirine-treated HEK293-fxn cells, compared to untreated control cells. […] We then analyzed the effect of etravirine on the decay of frataxin transcript observed upon treatment with actinomycin. HEK293-fxn cells were treated with actinomycin for 4, 8 or 12 hours in the presence or absence of etravirine and frataxin mRNA was quantitated by RT-PCR.
HEK 293-fxn stably expressing frataxin (A), HEK 293 (B), or FRDA lymphoblast cell line GM16203 (C) were treated with 10 μM etravirine for the indicated time points. Protein extracts were resolved on SDS-PAGE and analyzed by western blot with anti-frataxin antibody and anti-tubulin as a loading control. Etr: etravirine; tub: tubulin; fxn pre: frataxin precursor. […]

| SMILES | increase in the intensity of the luminescence signal [1] [fold] | relative amount of newly synthesized frataxin mRNA vs untreated control cells [2] |
| --- | --- | --- |
| CC(C)C[C@@H](C=O)NC(=O)[C@H](CC(C)C)NC(=O)[C@H](CC(C)C)NC(=O)OCc1ccccc1 [MG132] (Cbz-Leu-Leu-Leu-aldehyde) | 5 |  |
| O=C(CCCCCCC(=O)Nc1ccccc1)NO [Vorinostat] |  | significantly upregulates |
